What was measured:
[1] = system: Homo sapiens; experiment: Increase in P-gp-substrate 99mTc]sestaMIBI accumulation in liver of human with metastatic cancer at 150 mg, iv by imaging analysis; format: functional
[2] = system: Homo sapiens; experiment: Increase in P-gp-substrate 99mTc]sestaMIBI accumulation in tumor and heart of human with metastatic cancer at 150 mg, iv by imaging analysis; format: functional

## COc1cc2c(cc1OC)CN(CCc1ccc(NC(=O)c3cc(OC)c(OC)cc3NC(=O)c3cnc4ccccc4c3)cc1)CC2 [TARIQUIDAR]
[1]
  Activity: 128%
[2]
  Activity: 36%
